From US20240228535A1 (priority 2022, published 2024)

Each molecule was assayed against SARS2 coronavirus 3CL protease (Severe acute respiratory syndrome coronavirus 2, UniProt P0DTD1) (assay: biochemical). Conditions: 5 nM enzyme, 30 min pre-incubation with compound, 15 μM peptide substrate, 4 h at room temperature; read-out: FRET Potency (nM); IC50 values in the SARS2 3CLPro FRET assay.
`CNC(=O)C(=O)[C@H](C[C@@H]1C[C@@H](C)NC1=O)NC(=O)c1cc(Cl)ccc1NC(=O)c1cncc(C(F)(F)F)c1` [Example 91, N-[4-chloro-2-[[(1S)-3-(methylamino)-1-[[(3S,5R)-5-methyl-2-oxo-pyrrolidin-3-yl]methyl]-2,3-dioxo-propyl]carbamoyl]phenyl]-5-(trifluoromethyl)pyridine-3-carboxamide] gave an IC50 of 6.1 nM. `CNC(=O)C(=O)[C@H](C[C@@H]1CCNC1=O)NC(=O)c1cc(Cl)ccc1NC(=O)OC(C)C(F)(F)F` (some centres unmarked) [Example 180] showed an IC50 of 4.5 nM. In the case of `C[C@@H]1C[C@@H](C[C@H](NC(=O)c2cc(F)c(F)cc2NC(=O)c2ccnc(C(F)(F)F)c2)C(=O)C(=O)NC2CC2)C(=O)N1` [Example 49, N-[2-[[(1S)-3-(cyclopropylamino)-1-[[(3S,5R)-5-methyl-2-oxo-pyrrolidin-3-yl]methyl]-2,3-dioxo-propyl]carbamoyl]-4,5-difluoro-phenyl]-2-(trifluoromethyl)pyridine-4-carboxamide], the IC50 is reported as 8.8 nM. In the case of `C[C@@H]1C[C@@H](C[C@H](NC(=O)c2cc(Cl)ccc2NC(=O)c2ccn(CC(F)(F)F)n2)C(=O)C(=O)NC2CC2)C(=O)N1` [Example 100, N-[4-chloro-2-[[(1S)-3-(cyclopropylamino)-1-[[(3S,5R)-5-methyl-2-oxo-pyrrolidin-3-yl]methyl]-2,3-dioxo-propyl]carbamoyl]phenyl]-1-(2,2,2-trifluoroethyl)pyrazole-3-carboxamide], the IC50 is reported as 5.9 nM. In the case of `CNC(=O)C(=O)[C@H](C[C@@H]1C[C@@H](C)NC1=O)NC(=O)c1cc(Cl)ccc1NC(=O)OC1CCCC1` [Example 167, cyclopentyl N-[4-chloro-2-[[(1S)-3-(methylamino)-1-[[(3S,5R)-5-methyl-2-oxo-pyrrolidin-3-yl]methyl]-2,3-dioxo-propyl]carbamoyl]phenyl] carbamate], the IC50 is reported as 5.5 nM. `CNC(=O)C(=O)[C@H](C[C@@H]1C[C@@H](C)NC1=O)NC(=O)c1cc(Cl)ccc1NC(=O)OCC1CCCC(F)(F)C1` (stereo partly drawn) [Example 218, (3,3-difluorocyclohexyl)methyl N-[4-chloro-2-[[(1S)-3-(methylamino)-1-[[(3S,5R)-5-methyl-2-oxo-pyrrolidin-3-yl]methyl]-2,3-dioxo-propyl]carbamoyl]phenyl] carbamate] was tested, and the IC50 was 6.8 nM. `CNC(=O)C(=O)[C@H](C[C@@H]1C[C@@H](C)NC1=O)NC(=O)c1cc(Cl)ccc1NC(=O)OC1CCC(F)(F)C1` (stereo partly drawn) [Example 200, (3,3-difluorocyclopentyl) N-[4-chloro-2-[[(1S)-3-(methylamino)-1-[[(3S,5R)-5-methyl-2-oxo-pyrrolidin-3-yl]methyl]-2,3-dioxo-propyl]carbamoyl]phenyl] carbamate] was tested, and the IC50 was 4.6 nM. `CNC(=O)C(=O)[C@H](C[C@@H]1C[C@@H](C)NC1=O)NC(=O)c1cc(Cl)ccc1NC(=O)c1ncc(C(F)(F)F)cn1` [Example 217, N-[4-chloro-2-[[(1S)-3-(methylamino)-1-[[(3S,5R)-5-methyl-2-oxo-pyrrolidin-3-yl]methyl]-2,3-dioxo-propyl]carbamoyl]phenyl]-5-(trifluoromethyl)pyrimidine-2-carboxamide] gave an IC50 of 6.7 nM. `C[C@@H]1C[C@@H](C[C@H](NC(=O)c2cc(Cl)ccc2NC(=O)C2CC2C(F)(F)F)C(=O)C(=O)NC2CC2)C(=O)N1` (stereo partly drawn) [Example 85, 5-chloro-N-[(1S)-3-(cyclopropylamino)-1-[[(3S,5R)-5-methyl-2-oxo-pyrrolidin-3-yl]methyl]-2,3-dioxo-propyl]-2-[[2-(trifluoromethyl)cyclopropane-carbonyl]amino]benzamide] was tested, and the IC50 was 15.2 nM. `C[C@@H]1C[C@@H](C[C@H](NC(=O)c2cc(Cl)cnc2NC(=O)C23CC(F)(C2)C3)C(=O)C(=O)NC2CC2)C(=O)N1` [Example 27, 5-chloro-N-[(1S)-3-(cyclopropylamino)-1-[[(3S,5R)-5-methyl-2-oxo-pyrrolidin-3-yl]methyl]-2,3-dioxo-propyl]-2-[(3-fluorobicyclo[1.1.1]pentane-1-carbonyl)amino]pyridine-3-carboxamide] showed an IC50 of 13.6 nM. Work on `C[C@@H]1C[C@@H](C[C@H](NC(=O)c2cc(Cl)cc(Cl)c2NC(=O)C23CC(F)(C2)C3)C(=O)C(=O)NC2CC2)C(=O)N1` [Example 80, N-[2,4-dichloro-6-[[(1S)-3-(cyclopropylamino)-1-[[(3S,5R)-5-methyl-2-oxo-pyrrolidin-3-yl]methyl]-2,3-dioxo-propyl]carbamoyl]phenyl]-3-fluoro-bicyclo[1.1.1]pentane-1-carboxamide] yielded an IC50 of 21.6 nM. With `CC(C)OC(=O)Nc1ccc(Cl)cc1C(=O)N[C@@H](C[C@@H]1C[C@@H](C)NC1=O)C(=O)C(=O)NC1CC1` [Example 6, isopropyl (4-chloro-2-(((S)-4-(cyclopropylamino)-1-((3S,5R)-5-methyl-2-oxopyrrolidin-3-yl)-3,4-dioxobutan-2-yl)carbamoyl)phenyl)carbamate] the IC50 was 4.8 nM. With `CC(C)OC(=O)Nc1ccc(Cl)cc1C(=O)N[C@@H](C[C@@H]1CCNC1=O)C(=O)C(=O)NC1CC1` [Example 96, isopropyl N-[4-chloro-2-[[(1S)-3-(cyclopropylamino)-2,3-dioxo-1-[[(3S)-2-oxopyrrolidin-3-yl]methyl]propyl]carbamoyl]phenyl]carbamate] the IC50 was 6 nM. Molecule `CNC(=O)C(=O)[C@H](C[C@@H]1C[C@@H](C)NC1=O)NC(=O)c1cc(Cl)ccc1NC(=O)C1CCCC(F)(F)C1` (single isomer, unassigned) [Example 199] has an IC50 of 18.7 nM. In the case of `C[C@@H]1C[C@@H](C[C@H](NC(=O)c2cc(Cl)ccc2NC(=O)CCC(F)(F)F)C(=O)C(N)=O)C(=O)N1` [Example 158, N-[(1S)-3-amino-1-[[(3S,5R)-5-methyl-2-oxo-pyrrolidin-3-yl]methyl]-2,3-dioxo-propyl]-5-chloro-2-(4,4,4-trifluorobutanoylamino) benzamide], the IC50 is reported as 8.3 nM. With `O=C(CCC(F)(F)F)Nc1cc(F)c(Cl)cc1C(=O)N[C@@H](C[C@@H]1CCNC1=O)C(=O)C(=O)NC1CC1` [Example 56, 5-chloro-N-[(1S)-3-(cyclopropylamino)-2,3-dioxo-1-[[(3S)-2-oxopyrrolidin-3-yl]methyl]propyl]-4-fluoro-2-(4,4,4-trifluorobutanoylamino) benzamide] the IC50 was 8.1 nM. `CNC(=O)C(=O)[C@H](C[C@@H]1C[C@@H](C)NC1=O)NC(=O)c1cc(Cl)cnc1NC(=O)OC1CC1` [Example 140, cyclopropyl N-[5-chloro-3-[[(1S)-3-(methylamino)-1-[[(3S,5R)-5-methyl-2-oxo-pyrrolidin-3-yl]methyl]-2,3-dioxo-propyl]carbamoyl]-2-pyridyl]carbamate] showed an IC50 of 9.2 nM. `C[C@@H]1C[C@@H](C[C@H](NC(=O)c2cc(Cl)cc(F)c2NC(=O)C23CC(F)(C2)C3)C(=O)C(=O)NC2CC2)C(=O)N1` [Example 206] showed an IC50 of 12.8 nM. `C[C@@H]1C[C@@H](C[C@H](NC(=O)c2cc(Cl)cnc2NC(=O)C2CCC(F)(F)CC2)C(=O)C(=O)NC2CC2)C(=O)N1` [Example 39, 5-chloro-N-[(1S)-3-(cyclopropylamino)-1-[[(3S,5R)-5-methyl-2-oxo-pyrrolidin-3-yl]methyl]-2,3-dioxo-propyl]-2-[(4,4-difluorocyclohexanecarbonyl)amino]pyridine-3-carboxamide] gave an IC50 of 10.3 nM. In the case of `C[C@@H]1C[C@@H](C[C@H](NC(=O)c2cc(C(F)F)ccc2NC(=O)C2(C(F)(F)F)CC2)C(=O)C(=O)NC2CC2)C(=O)N1` [Example 220, N-[(1S)-3-(cyclopropylamino)-1-[[(3S,5R)-5-methyl-2-oxo-pyrrolidin-3-yl]methyl]-2,3-dioxo-propyl]-5-(difluoromethyl)-2-[[1-(trifluoromethyl)cyclopropane-carbonyl]amino]benzamide], the IC50 is reported as 60.3 nM. For `CNC(=O)C(=O)[C@H](C[C@@H]1C[C@@H](C)NC1=O)NC(=O)c1cc(Cl)ccc1NC(=O)OC1CCC(F)(F)C1` (stereo partly drawn) [Example 201, (3,3-difluorocyclopentyl) N-[4-chloro-2-[(1S)-3-(methylamino)-1-[[(3S,5R)-5-methyl-2-oxo-pyrrolidin-3-yl]methyl]-2,3-dioxo-propyl]carbamoyl]phenyl] carbamate], the IC50 was 7 nM. `CNC(=O)C(=O)[C@H](C[C@@H]1C[C@@H](C)NC1=O)NC(=O)c1cc(C(F)F)ccc1NC(=O)C1(C(F)(F)F)CC1` [Example 203, 5-(difluoromethyl)-N-[(1S)-3-(methylamino)-1-[[(3S,5R)-5-methyl-2-oxo-pyrrolidin-3-yl]methyl]-2,3-dioxo-propyl]-2-[[1-(trifluoromethyl)cyclopropane-carbonyl]amino]benzamide] gave an IC50 of 36.6 nM. For `C[C@@H]1C[C@@H](C[C@H](NC(=O)c2cc(Cl)ccc2NC(=O)c2cccc(C(F)(F)F)c2)C(=O)C(=O)NC2CC2)C(=O)N1` [Example 66, 5-chloro-N-[(1S)-3-(cyclopropylamino)-1-[[(3S,5R)-5-methyl-2-oxo-pyrrolidin-3-yl]methyl]-2,3-dioxo-propyl]-2-[[3-(trifluoromethyl)benzoyl]amino]benzamide], the IC50 was 7 nM. With `CNC(=O)C(=O)[C@H](C[C@@H]1CCNC1=O)NC(=O)c1cc(Cl)ccc1NC(=O)C12CC(F)(C1)C2` [Example 47] the IC50 was 8.8 nM. `C[C@@H]1C[C@@H](C[C@H](NC(=O)c2cc(Cl)cc(F)c2NC(=O)CCC(F)(F)F)C(=O)C(=O)NC2CC2)C(=O)N1` [Example 213, 5-chloro-N-[(1S)-3-(cyclopropylamino)-1-[[(3S,5R)-5-methyl-2-oxo-pyrrolidin-3-yl]methyl]-2,3-dioxo-propyl]-3-fluoro-2-(4,4,4-trifluorobutanoylamino) benzamide] was tested, and the IC50 was 15.4 nM. With `C[C@@H]1C[C@@H](C[C@H](NC(=O)c2cc(Cl)ccc2NC(=O)c2cccc(F)c2)C(=O)C(=O)NC2CC2)C(=O)N1` [Example 73, 5-chloro-N-[(1S)-3-(cyclopropylamino)-1-[[(3S,5R)-5-methyl-2-oxo-pyrrolidin-3-yl]methyl]-2,3-dioxo-propyl]-2-[(3-fluorobenzoyl)amino] benzamide] the IC50 was 6.2 nM.
